Results: US20230219963A1, “PYRROLO[2,3-D]PYRIMIDINE DERIVATIVES” (Pfizer Inc., priority 2020, published 2023)

Biological target: T1, JAK3 (Homo sapiens, UniProt P52333)
T1 sequence (P52333 1-1124): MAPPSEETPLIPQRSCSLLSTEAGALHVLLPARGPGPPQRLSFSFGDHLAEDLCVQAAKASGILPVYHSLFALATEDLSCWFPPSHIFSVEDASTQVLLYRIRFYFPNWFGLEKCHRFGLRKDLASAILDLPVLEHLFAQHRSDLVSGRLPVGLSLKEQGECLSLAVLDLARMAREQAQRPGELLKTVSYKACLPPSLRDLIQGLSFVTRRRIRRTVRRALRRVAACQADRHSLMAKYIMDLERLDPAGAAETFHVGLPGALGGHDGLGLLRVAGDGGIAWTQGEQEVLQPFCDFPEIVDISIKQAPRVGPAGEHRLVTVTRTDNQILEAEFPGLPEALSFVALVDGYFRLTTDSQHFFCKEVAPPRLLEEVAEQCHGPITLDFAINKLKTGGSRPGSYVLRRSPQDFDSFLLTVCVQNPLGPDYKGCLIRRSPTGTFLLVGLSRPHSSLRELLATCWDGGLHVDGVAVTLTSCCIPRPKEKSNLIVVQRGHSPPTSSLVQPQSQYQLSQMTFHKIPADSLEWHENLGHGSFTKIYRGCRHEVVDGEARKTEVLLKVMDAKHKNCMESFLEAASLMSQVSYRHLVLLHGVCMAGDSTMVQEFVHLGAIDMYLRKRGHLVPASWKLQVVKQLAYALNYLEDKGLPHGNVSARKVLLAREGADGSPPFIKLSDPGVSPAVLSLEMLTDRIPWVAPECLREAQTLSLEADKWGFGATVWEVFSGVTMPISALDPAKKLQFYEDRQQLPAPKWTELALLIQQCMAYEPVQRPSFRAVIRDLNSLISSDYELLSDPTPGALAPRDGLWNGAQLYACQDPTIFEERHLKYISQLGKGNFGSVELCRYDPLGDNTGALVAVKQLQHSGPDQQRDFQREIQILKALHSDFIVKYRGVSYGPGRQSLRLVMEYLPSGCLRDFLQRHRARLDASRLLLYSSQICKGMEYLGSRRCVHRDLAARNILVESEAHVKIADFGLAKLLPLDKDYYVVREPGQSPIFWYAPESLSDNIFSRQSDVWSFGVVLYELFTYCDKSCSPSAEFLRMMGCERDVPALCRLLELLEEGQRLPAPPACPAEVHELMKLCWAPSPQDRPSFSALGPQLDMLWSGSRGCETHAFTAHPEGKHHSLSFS
Assay: JAK Caliper Enzyme Assay at 1 mM ATP (JAK3)
Assay type: biochemical
Procedure: JAK Caliper Enzyme Assay at 1 mM ATP
Test article was solubilized in dimethyl sulfoxide (DMSO) to a stock concentration of 30 mM. An 11-point half log dilution series was created in DMSO with a top concentration of 600 μM. […] The compound plates were diluted 1 to 60 resulting in a top final assay compound concentration of 10 μM and a 2% DMSO concentration. Test article and assay controls were added to a 384-well plate. Reaction mixtures contained 20 mM HEPES, pH 7.4, 10 mM magnesium chloride, 0.01% bovine serum albumin (BSA), 0.0005% Tween 20, 1 mM ATP and 1 μM peptide substrate. […] The assays were initiated by the addition of 20 nM JAK1, 1 nM JAK2, 1 nM JAK3 or 1 nM TYK2 enzyme and were incubated at room temperature for three hours for JAK1, 60 minutes for JAK2, 75 minutes for JAK3 or 135 minutes for TYK2. Enzyme concentrations and incubation times were optimized for each new enzyme preps and were modified slightly over time to ensure 20%-30% phosphorylation. The assays were stopped with a final concentration of 10 mM EDTA, 0.1% Coating Reagent and 100 mM HEPES, pH=7.4. The assay plates were placed on a Caliper Life Science Lab Chip 3000 (LC3000) instrument, and each well was sampled using appropriate separation conditions to measure the unphosphorylated and phosphorylated peptide.

C[C@H](O)CS(=O)(=O)N[C@H]1C[C@@H](N(C)c2ncnc3[nH]ccc23)C1 (single isomer, unassigned) [IA (M2)] was tested, and the IC50 was over 10 µM.

C[C@@H](O)CS(=O)(=O)N[C@H]1C[C@@H](N(C)c2ncnc3[nH]ccc23)C1 (single isomer, unassigned) [IC (M3)] was tested, and the IC50 was over 10 µM.

CN(c1ncnc2[nH]ccc12)[C@H]1C[C@@H](NS(=O)(=O)CCCO)C1 [IB (M1), 3-Hydroxy-N-(cis-3-(methyl(7H-pyrrolo[2,3-d]pyrimidin-4-yl)amino)cyclobutyl)propane-1-sulfonamide] showed an IC50 of over 10 µM.
